This passage reports inhibition, Activity and IC50 results from ChEMBL document CHEMBL4261615, “Design, synthesis, biological evaluation and cellular imaging of imidazo[4,5-b]pyridine derivatives as potent and selective TAM inhibitors” (Bioorg Med Chem, 2018).

Active and inactive are the calls of the source. No cut-off for these calls is given here.

In experiment [1] the target is T1, Tyrosine-protein kinase receptor TYRO3 (Homo sapiens) (UniProt Q06418).
T1 sequence (whole entry): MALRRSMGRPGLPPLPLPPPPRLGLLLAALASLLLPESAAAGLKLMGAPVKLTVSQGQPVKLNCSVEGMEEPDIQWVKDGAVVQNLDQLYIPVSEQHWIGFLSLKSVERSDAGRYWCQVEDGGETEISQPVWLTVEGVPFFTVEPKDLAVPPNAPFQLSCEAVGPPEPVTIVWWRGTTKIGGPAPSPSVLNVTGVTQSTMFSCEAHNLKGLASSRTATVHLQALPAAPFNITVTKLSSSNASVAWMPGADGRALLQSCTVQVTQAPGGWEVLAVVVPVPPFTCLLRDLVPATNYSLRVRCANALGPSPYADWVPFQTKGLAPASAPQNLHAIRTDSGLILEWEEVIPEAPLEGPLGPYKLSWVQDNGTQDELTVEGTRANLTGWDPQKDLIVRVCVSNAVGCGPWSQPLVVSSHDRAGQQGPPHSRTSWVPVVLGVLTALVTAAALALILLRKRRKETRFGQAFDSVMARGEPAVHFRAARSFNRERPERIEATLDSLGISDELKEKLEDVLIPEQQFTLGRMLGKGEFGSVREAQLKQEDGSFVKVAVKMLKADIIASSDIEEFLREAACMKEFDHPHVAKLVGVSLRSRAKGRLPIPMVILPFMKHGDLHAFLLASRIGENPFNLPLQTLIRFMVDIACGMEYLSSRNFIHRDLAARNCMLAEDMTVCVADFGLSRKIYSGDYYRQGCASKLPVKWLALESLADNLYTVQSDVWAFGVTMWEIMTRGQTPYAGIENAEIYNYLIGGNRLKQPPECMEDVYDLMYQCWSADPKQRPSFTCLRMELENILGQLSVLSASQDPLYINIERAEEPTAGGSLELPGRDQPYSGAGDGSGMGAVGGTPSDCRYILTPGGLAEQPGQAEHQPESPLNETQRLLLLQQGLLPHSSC
Put plainly: Inhibition of recombinant GST-tagged human Tyro3 (451 to 890 residues) cytoplasmic domain expressed in Baculovirus expression system using poly (Glu-Ala-Tyr) peptide as substrate after 1.5 hrs by ELISA. (In general: An ELISA detects its analyte on a solid surface through an enzyme-linked reagent.)

Experiment [2] has as its target T2, Tyrosine-protein kinase Mer (Homo sapiens) (UniProt Q12866).
T2 sequence (whole entry): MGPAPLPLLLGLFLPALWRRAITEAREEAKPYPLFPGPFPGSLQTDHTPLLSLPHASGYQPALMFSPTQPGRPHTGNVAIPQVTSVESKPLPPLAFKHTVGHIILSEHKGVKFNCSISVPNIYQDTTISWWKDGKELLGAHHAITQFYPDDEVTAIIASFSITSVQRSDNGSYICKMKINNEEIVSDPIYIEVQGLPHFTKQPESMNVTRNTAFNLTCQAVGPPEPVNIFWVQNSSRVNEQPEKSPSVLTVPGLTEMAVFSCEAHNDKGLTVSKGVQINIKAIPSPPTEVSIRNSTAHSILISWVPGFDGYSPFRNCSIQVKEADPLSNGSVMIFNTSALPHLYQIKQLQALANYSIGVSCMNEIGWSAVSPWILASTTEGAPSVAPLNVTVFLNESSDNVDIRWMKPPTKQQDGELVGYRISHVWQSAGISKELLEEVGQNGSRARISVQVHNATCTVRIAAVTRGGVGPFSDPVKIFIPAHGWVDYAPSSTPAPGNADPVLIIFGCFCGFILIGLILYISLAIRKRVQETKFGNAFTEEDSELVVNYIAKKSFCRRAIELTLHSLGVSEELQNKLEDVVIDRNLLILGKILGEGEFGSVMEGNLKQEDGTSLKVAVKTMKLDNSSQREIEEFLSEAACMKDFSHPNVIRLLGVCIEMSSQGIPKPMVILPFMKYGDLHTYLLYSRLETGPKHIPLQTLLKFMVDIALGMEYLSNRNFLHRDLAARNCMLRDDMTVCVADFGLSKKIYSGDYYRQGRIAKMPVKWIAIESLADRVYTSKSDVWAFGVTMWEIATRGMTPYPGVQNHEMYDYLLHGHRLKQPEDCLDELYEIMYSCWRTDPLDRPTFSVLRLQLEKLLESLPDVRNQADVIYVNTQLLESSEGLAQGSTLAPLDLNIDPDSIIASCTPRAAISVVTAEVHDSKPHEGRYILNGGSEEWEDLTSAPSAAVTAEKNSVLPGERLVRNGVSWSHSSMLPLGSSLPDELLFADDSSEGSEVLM
Kind of experiment: Inhibition of recombinant GST-tagged human Mer (578 to 872 residues) cytoplasmic domain expressed in Baculovirus system using poly (Glu-Ala-Tyr) peptide as substrate after 1.5 hrs by ELISA.

Experiment [3] concerns the target Tyrosine-protein kinase receptor UFO (Homo sapiens) (UniProt P30530). Put plainly: Inhibition of recombinant His-tagged human Axl (473 to end residues) cytoplasmic domain expressed in insect system using poly (Glu-Ala-Tyr) peptide as substrate after 1.5 hrs by ELISA.
The species entered for another experiment is Homo sapiens. Put plainly: (§1) Antiproliferative activity against human MGHU3 cells after 72 hrs by CellTiter-Glo assay. It counts as functional, cell-based. For orientation: ATP-based viability assays read luminescence as a measure of living cells.
A further experiment has as its system RT-112. Kind of experiment: Antiproliferative activity against human RT112 cells after 72 hrs by CellTiter-Glo assay. It counts as functional, cell-based.
Experiment [4] can be described thus: as §1. In kind it is functional, cell-based.
The subject of the next experiment is A549. Kind of experiment: Antiproliferative activity against human A549 cells after 72 hrs by CellTiter-Glo assay. To be noted: A549, 72 h. In kind it is functional, cell-based.

Sequence of Tyrosine-protein kinase receptor UFO (Homo sapiens) (P30530 whole entry, the tested form may be a part): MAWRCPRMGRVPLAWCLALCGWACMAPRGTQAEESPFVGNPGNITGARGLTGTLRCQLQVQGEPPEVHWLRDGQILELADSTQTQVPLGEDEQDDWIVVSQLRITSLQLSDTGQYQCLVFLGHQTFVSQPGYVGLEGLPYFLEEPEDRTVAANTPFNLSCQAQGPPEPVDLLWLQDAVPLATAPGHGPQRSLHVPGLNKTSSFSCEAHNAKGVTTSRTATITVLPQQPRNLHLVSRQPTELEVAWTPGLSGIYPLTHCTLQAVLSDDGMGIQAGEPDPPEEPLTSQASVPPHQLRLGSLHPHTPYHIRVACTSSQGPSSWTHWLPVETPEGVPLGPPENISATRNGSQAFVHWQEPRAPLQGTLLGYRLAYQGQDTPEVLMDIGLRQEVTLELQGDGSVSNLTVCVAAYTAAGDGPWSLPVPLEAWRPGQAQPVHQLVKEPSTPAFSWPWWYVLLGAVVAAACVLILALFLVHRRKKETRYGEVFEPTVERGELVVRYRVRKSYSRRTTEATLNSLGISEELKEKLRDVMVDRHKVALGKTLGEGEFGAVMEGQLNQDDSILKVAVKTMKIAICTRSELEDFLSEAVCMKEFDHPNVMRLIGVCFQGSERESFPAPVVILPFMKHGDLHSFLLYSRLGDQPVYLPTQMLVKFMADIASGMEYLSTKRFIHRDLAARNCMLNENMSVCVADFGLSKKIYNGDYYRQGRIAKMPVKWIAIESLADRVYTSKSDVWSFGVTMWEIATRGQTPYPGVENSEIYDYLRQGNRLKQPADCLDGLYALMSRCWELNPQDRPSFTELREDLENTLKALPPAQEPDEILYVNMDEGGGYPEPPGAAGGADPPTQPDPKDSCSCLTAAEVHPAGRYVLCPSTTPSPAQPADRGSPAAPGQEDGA

`CC(C)c1nc2c(Oc3ccc(NC(=O)c4cccn(-c5ccc(F)cc5)c4=O)cc3F)c(-c3ccc(O)cc3)cnc2[nH]1`: the inhibition entry in experiment [1], in experiment [2] and in experiment [3] was “inactive” in each case.
`CCOc1ccn(-c2ccc(F)cc2)c(=O)c1C(=O)Nc1ccc(Oc2ccnc(N)c2Cl)c(F)c1`: the outcome in the experiment filed under Homo sapiens and in the experiment with RT-112 was Active.
On to `CCc1nc2c(Oc3ccc(NC(=O)c4cccn(-c5ccc(F)cc5)c4=O)cc3F)c(-c3ccc(N(C)C)cc3)cnc2[nH]1`, for which the inhibition entry in experiment [1], in experiment [2] and in experiment [3] was “inactive” each time.
As to `CCc1nc2c(Oc3ccc(NC(=O)c4cccn(-c5ccc(F)cc5)c4=O)cc3F)c(-c3cccnc3)cnc2[nH]1`, the inhibition result in experiment [1], in experiment [2] and in experiment [3] was “inactive” in each case.
Regarding `CCc1nc2c(Oc3ccc(NC(=O)c4cccn(-c5ccc(F)cc5)c4=O)cc3F)c(-c3ccoc3)cnc2[nH]1`, the inhibition entry in experiment [1], in experiment [2] and in experiment [3] was “inactive” throughout.
As to `COc1cc2/c(=N/c3ccc(Br)cc3F)nc[nH]c2cc1OCC1CCN(C)CC1` [VANDETANIB], the IC50 (in general, the midpoint of a concentration-inhibition curve) was in the range of 2.5 to 5 µM in experiment [4]; 2.5 to 5 µM in the experiment with A549; 2.5 to 5 µM with RT-112 (RT-112, 72 h).
`CC(C)c1nc2c(Oc3ccc(NC(=O)c4cccn(-c5ccc(F)cc5)c4=O)cc3F)c(-c3cccnc3)cnc2[nH]1`: the inhibition entry in experiment [1], in experiment [2] and in experiment [3] was “inactive” in each case.
For the molecule `CCc1nc2c(Oc3ccc(NC(=O)c4cccn(-c5ccc(F)cc5)c4=O)cc3F)c(-c3ccc(O)cc3)cnc2[nH]1`, the inhibition result in experiment [1], in experiment [2] and in experiment [3] was “inactive” throughout.
Take `CC(C)c1nc2c(Oc3ccc(NC(=O)c4cccn(-c5ccc(F)cc5)c4=O)cc3F)c(-c3ccc(N(C)C)cc3)cnc2[nH]1`: the inhibition entry in experiment [1], in experiment [2] and in experiment [3] was “inactive” throughout.
In the case of `O=C(Nc1ccc(Oc2c(-c3ccccc3)cnc3[nH]cnc23)c(F)c1)c1cccn(-c2ccc(F)cc2)c1=O`, the inhibition entry in experiment [1], in experiment [2] and in experiment [3] was “inactive” in each case.
For the molecule `CC(C)c1nc2c(Oc3ccc(NC(=O)c4cccn(-c5ccc(F)cc5)c4=O)cc3F)c(-c3ccoc3)cnc2[nH]1`, the inhibition entry in experiment [1], in experiment [2] and in experiment [3] was “inactive” in each case.
Regarding `CC(C)c1nc2c(Oc3ccc(NC(=O)c4cccn(-c5ccc(F)cc5)c4=O)cc3F)c(-c3ccncc3)cnc2[nH]1`, the inhibition result in experiment [1], in experiment [2] and in experiment [3] was “inactive” throughout.
Regarding `CCc1nc2c(Oc3ccc(NC(=O)c4cccn(-c5ccc(F)cc5)c4=O)cc3F)c(-c3ccncc3)cnc2[nH]1`, the inhibition result in experiment [1], in experiment [2] and in experiment [3] was “inactive” in each case.
On to `COc1cc2nccc(Oc3ccc(NC(=O)C4(C(=O)Nc5ccc(F)cc5)CC4)cc3)c2cc1OC`, for which the result in the experiment listed under Homo sapiens and in the experiment with RT-112 was Active.
